# Measurements published in patent US9737545B2 (MERCK SHARP & DOHME CORP., priority 2013, dated 2017).
# Target: T1, wildtype HIV-1 protease (Human immunodeficiency virus type 1 group M subtype B, UniProt P04585)
# T1 construct: preincubated with the HIV-1 protease (wild type) enzyme in assay buffer; made in house; host or cells: Escherichia coli
# Test: Assay for Inhibition of Microbial Expressed HIV Protease (Pepcleav)
# Assay type: biochemical
# Method: Assay for Inhibition of Microbial Expressed HIV Protease (“Pepcleav”)
# Studies of the inhibition of the wildtype HIV-1 protease (which was expressed in Escherichia coli) were carried out with a peptide substrate [Val-Ser-Gln-Asn-(βnaphthyl)Ala-Pro-Ile-Val (SEQ ID NO: 1)]. The inhibitor was first preincubated with the HIV-1 protease (wild type) enzyme in assay buffer (50 mM sodium acetate, pH 5.5, 100 mM NaCl, and 0.1% BSA) for 30 minutes at room temperature. Substrate was added to 400 micromolar in a total volume of 20 microliters containing 20 picomolar HIV-1 protease (final) and the reaction was incubated for 1 hour at 30° C. The reaction was quenched with the addition of formic acid and indinavir to 0.012% and 150 nM final concentrations, respectively. The product formation was determined after separation of product and substrate on a Zorbax Eclipse XDB-C18 column connected to an API 4000 mass spectrometer (Applied Biosystems) with multiple reaction monitoring (transitions were 644.5/428.9 and 615.4/422.2 (M1/M3) for product and indinavir respectively). The extent of inhibition of the reaction was determined from the peak area of the products. Analysis of the products, independently synthesized, provided quantitation standards and confirmation of the product composition.
row,Structure (SMILES),IC50 [nM]
1,"COC(=O)N[C@H](C(=O)Nc1ccccc1CC[C@@H]1CN[C@H](c2nc3ccccc3[nH]2)CO1)C(c1ccccc1)c1ccccc1 [Example 1, N-(2-{2-[(2R,5R)-5-(1H-benzimidazol-2-yl)morpholin-2-yl]ethyl}phenyl)-Nα-(methoxycarbonyl)-β-phenyl-L-phenylalaninamide]",0.0374
2,"COC(=O)N[C@H](C(=O)Nc1ccccc1CC[C@@H]1CN[C@H](c2nc3ccccc3n2C)CO1)C(c1ccccc1)c1ccccc1 [Example 2, methyl N-[(1S)-1-benzhydryl-2-[[2-[2-[(2R,5R)-5-(1-methylbenzimidazol-2-yl)morpholin-2-yl]ethyl]phenyl]amino]-2-oxo-ethyl]carbamate]",7.96
3,"COC(=O)N[C@H](C(=O)Nc1ccccc1CC[C@@H]1CN[C@H](c2nc3cccc(C)c3[nH]2)CO1)C(c1ccccc1)c1ccccc1 [Example 3, methyl N-[(1S)-1-benzhydryl-2-[[2-[2-[(2R,5R)-5-(7-methyl-1H-benzimidazol-2-yl)morpholin-2-yl]ethyl]phenyl]amino]-2-oxo-ethyl]carbamate]",0.0639
4,"COC(=O)N[C@H](C(=O)Nc1ccccc1CC[C@@H]1CN[C@H](c2nc3ccc(C)cc3[nH]2)CO1)C(c1ccccc1)c1ccccc1 [Example 4, methyl N-[(1S)-1-benzhydryl-2-[[2-[2-[(2R,5R)-5-(6-methyl-1H-benzimidazol-2-yl)morpholin-2-yl]ethyl]phenyl]amino]-2-oxo-ethyl]carbamate]",0.0923
5,"COC(=O)N[C@H](C(=O)Nc1ccccc1CC[C@@H]1CN[C@H](c2nc3ccncc3[nH]2)CO1)C(c1ccccc1)c1ccccc1 [Example 5, methyl N-[(1S)-1-benzhydryl-2-[[2-[2-[(2R,5R)-5-(3H-imidazo[4,5-c]pyridin-2-yl)morpholin-2-yl]ethyl]phenyl]amino]-2-oxo-ethyl]carbamate]",7.41
6,"COC(=O)N[C@H](C(=O)Nc1ccccc1CC[C@@H]1CN[C@H](c2nc3ccc(OC)cc3[nH]2)CO1)C(c1ccccc1)c1ccccc1 [Example 6, methyl N-[(1S)-1-benzhydryl-2-[[2-[2-[(2R,5R)-5-(6-methoxy-1H-benzimidazol-2-yl)morpholin-2-yl]ethyl]phenyl]amino]-2-oxo-ethyl]carbamate]",0.334
7,"COC(=O)N[C@H](C(=O)Nc1ccccc1CC[C@@H]1CN[C@H](c2nc3ccc(S(C)(=O)=O)cc3[nH]2)CO1)C(c1ccccc1)c1ccccc1 [Example 7, methyl N-[(1S)-1-benzhydryl-2-[[2-[2-[(2R,5R)-5-(6-methylsulfonyl-1H-benzimidazol-2-yl)morpholin-2-yl]ethyl]phenyl]amino]-2-oxo-ethyl]carbamate]",37.1
8,"COC(=O)N[C@H](C(=O)Nc1ccccc1CC[C@@H]1CN[C@H](c2nc3ccc(C(F)(F)F)cc3[nH]2)CO1)C(c1ccccc1)c1ccccc1 [Example 8, methyl N-[(1S)-1-benzhydryl-2-oxo-2-[[2-[2-[(2R,5R)-5-[6-(trifluoromethyl)-1H-benzimidazol-2-yl]morpholin-2-yl]ethyl]phenyl]amino]ethyl]carbamate]",0.504
9,"COC(=O)N[C@H](C(=O)Nc1ccccc1CC[C@@H]1CN[C@H](c2nc3cc(C)c(C)cc3[nH]2)CO1)C(c1ccccc1)c1ccccc1 [Example 9, methyl N-[(1S)-1-benzhydryl-2-[[2-[2-[(2R,5R)-5-(5,6-dimethyl-1H-benzimidazol-2-yl)morpholin-2-yl]ethyl]phenyl]amino]-2-oxo-ethyl]carbamate]",0.0516
10,"COC(=O)N[C@H](C(=O)Nc1ccccc1CC[C@@H]1CN[C@H](c2nc3ccc(C#N)cc3[nH]2)CO1)C(c1ccccc1)c1ccccc1 [Example 10, methyl N-[(1S)-1-benzhydryl-2-[[2-[2-[(2R,5R)-5-(6-cyano-1H-benzimidazol-2-yl)morpholin-2-yl]ethyl]phenyl]amino]-2-oxo-ethyl]carbamate]",1.59
11,"COC(=O)N[C@H](C(=O)Nc1ccccc1CC[C@@H]1CN[C@H](c2nc3ccc(Br)cc3[nH]2)CO1)C(c1ccccc1)c1ccccc1 [Example 11, methyl N-[(1S)-1-benzhydryl-2-[[2-[2-[(2R,5R)-5-(6-bromo-1H-benzimidazol-2-yl)morpholin-2-yl]ethyl]phenyl]amino]-2-oxo-ethyl]carbamate]",0.411
12,COC(=O)N[C@H](C(=O)Nc1ccccc1CC[C@@H]1CN[C@H](c2nc3cc(Cl)c(Cl)cc3[nH]2)CO1)C(c1ccccc1)c1ccccc1 [Example 12],0.706
13,"COC(=O)N[C@H](C(=O)Nc1ccccc1CC[C@@H]1CN[C@H](c2nc3cccc(Cl)c3[nH]2)CO1)C(c1ccccc1)c1ccccc1 [Example 13, methyl N-[(1S)-1-benzhydryl-2-[[2-[2-[(2R,5R)-5-(7-chloro-1H-benzimidazol-2-yl)morpholin-2-yl]ethyl]phenyl]amino]-2-oxo-ethyl]carbamate]",0.137
14,"COC(=O)N[C@H](C(=O)Nc1ccccc1CC[C@@H]1CN[C@H](c2nc3cccc(Br)c3[nH]2)CO1)C(c1ccccc1)c1ccccc1 [Example 14, methyl N-[(1S)-1-benzhydryl-2-[[2-[2-[(2R,5R)-5-(7-bromo-1H-benzimidazol-2-yl)morpholin-2-yl]ethyl]phenyl]amino]-2-oxo-ethyl]carbamate]",0.592
15,"COC(=O)N[C@H](C(=O)Nc1ccccc1CC[C@@H]1CN[C@H](c2nc3c(O)cccc3[nH]2)CO1)C(c1ccccc1)c1ccccc1 [Example 15, methyl N-[(1S)-1-benzhydryl-2-[[2-[2-[(2R,5R)-5-(4-hydroxy-1H-benzimidazol-2-yl)morpholin-2-yl]ethyl]phenyl]amino]-2-oxo-ethyl]carbamate]",0.0559
16,"COC(=O)N[C@H](C(=O)Nc1ccccc1CC[C@@H]1CN[C@H](c2nc3cc(F)c(F)cc3[nH]2)CO1)C(c1ccccc1)c1ccccc1 [Example 16, methyl N-[(1S)-1-benzhydryl-2-[[2-[2-[(2R,5R)-5-(5,6-difluoro-1H-benzimidazol-2-yl)morpholin-2-yl]ethyl]phenyl]amino]-2-oxo-ethyl]carbamate]",0.0246
17,"COC(=O)N[C@H](C(=O)Nc1ccccc1CC[C@@H]1CN[C@H](c2nc3c(F)c(F)c(F)cc3[nH]2)CO1)C(c1ccccc1)c1ccccc1 [Example 17, methyl N-[(1S)-1-benzhydryl-2-oxo-2-[[2-[2-[(2R,5R)-5-(4,5,6-trifluoro-1H-benzimidazol-2-yl)morpholin-2-yl]ethyl]phenyl]amino]ethyl]carbamate]",0.0747
18,"COC(=O)N[C@H](C(=O)Nc1ccccc1CC[C@@H]1CN[C@H](c2nc3ccc(F)cc3[nH]2)CO1)C(c1ccccc1)c1ccccc1 [Example 18, methyl N-[(1S)-1-benzhydryl-2-[[2-[2-[(2R,5R)-5-(6-fluoro-1H-benzimidazol-2-yl)morpholin-2-yl]ethyl]phenyl]amino]-2-oxo-ethyl]carbamate]",0.125
19,"COC(=O)N[C@H](C(=O)Nc1ccccc1CC[C@@H]1CN[C@H](c2nc3c(Br)cc(C)cc3[nH]2)CO1)C(c1ccccc1)c1ccccc1 [Example 19, methyl N-[(1S)-1-benzhydryl-2-[[2-[2-[(2R,5R)-5-(4-bromo-6-methyl-1H-benzimidazol-2-yl)morpholin-2-yl]ethyl]phenyl]amino]-2-oxo-ethyl]carbamate]",0.573
20,"COC(=O)N[C@H](C(=O)Nc1ccccc1CC[C@@H]1CN[C@H](c2nc3cc(F)c(Br)cc3[nH]2)CO1)C(c1ccccc1)c1ccccc1 [Example 20, methyl N-[(1S)-1-benzhydryl-2-[[2-[2-[(2R,5R)-5-(6-bromo-5-fluoro-1H-benzimidazol-2-yl)morpholin-4-ium-2-yl]ethyl]phenyl]amino]-2-oxo-ethyl]carbamate]",0.525
21,"COC(=O)N[C@H](C(=O)Nc1ccccc1CC[C@@H]1CN[C@H](c2nc3nccnc3[nH]2)CO1)C(c1ccccc1)c1ccccc1 [Example 21, methyl N-[(1S)-1-benzhydryl-2-[[2-[2-[(2R,5R)-5-(3H-imidazo[4,5-b]pyrazin-2-yl)morpholin-2-yl]ethyl]phenyl]amino]-2-oxo-ethyl]carbamate]",1.68
22,"COC(=O)N[C@H](C(=O)Nc1ccccc1CC[C@@H]1CN[C@H](c2nc3cc(Cl)c(C)cc3[nH]2)CO1)C(c1ccccc1)c1ccccc1 [Example 22, methyl N-[(1S)-1-benzhydryl-2-[[2-[2-[(2R,5R)-5-(5-chloro-6-methyl-1H-benzimidazol-2-yl)morpholin-2-yl]ethyl]phenyl]amino]-2-oxo-ethyl]carbamate]",1.93
23,"COC(=O)N[C@H](C(=O)Nc1ccccc1CC[C@@H]1CN[C@H](c2nc3c(C)ccnc3[nH]2)CO1)C(c1ccccc1)c1ccccc1 [Example 23, methyl N-[(1S)-1-benzhydryl-2-[[2-[2-[(2R,5R)-5-(7-methyl-3H-imidazo[4,5-b]pyridin-2-yl)morpholin-2-yl]ethyl]phenyl]amino]-2-oxo-ethyl]carbamate]",3.13
24,"COC(=O)N[C@H](C(=O)Nc1ccccc1CC[C@@H]1CN[C@H](c2nc3c(C)cc(Cl)cc3[nH]2)CO1)C(c1ccccc1)c1ccccc1 [Example 24, methyl N-[(1S)-1-benzhydryl-2-[[2-[2-[(2R,5R)-5-(6-chloro-4-methyl-1H-benzimidazol-2-yl)morpholin-2-yl]ethyl]phenyl]amino]-2-oxo-ethyl]carbamate]",16.3
